Results reported in patent publication US10604535B2, “Compounds, compositions and methods” (Denali Therapeutics Inc., priority 2016, dated 2020).
Read-outs that look alike come from different tables or passages of the source.

Assays:
[1] = target: GST-hRIPK1 (8-327) (Homo sapiens (Human), UniProt Q13546); assay: Fluorescent Polarization Binding (FP Binding) assay
[2] = tested on: FADD-deficient Jurkat cells; assay: Cellular necroptosis assay (human TNFα-induced necrosis, CellTiter-Glo); type: cell-based; settings: Homo sapiens, Jurkat, 48 h, read-out: Cell IC50

Sequence of GST-hRIPK1 (8-327) (Q13546 8-327): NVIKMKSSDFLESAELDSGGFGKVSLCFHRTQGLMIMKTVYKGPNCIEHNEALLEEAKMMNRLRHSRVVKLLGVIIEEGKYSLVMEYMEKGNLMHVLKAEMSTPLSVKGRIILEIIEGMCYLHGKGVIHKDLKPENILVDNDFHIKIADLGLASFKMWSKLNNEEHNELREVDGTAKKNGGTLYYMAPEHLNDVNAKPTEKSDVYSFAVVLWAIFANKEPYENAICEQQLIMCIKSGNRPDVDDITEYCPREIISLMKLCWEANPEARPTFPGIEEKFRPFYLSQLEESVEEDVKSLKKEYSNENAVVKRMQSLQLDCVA

Structure (SMILES) | IC50 [1] [nM] | IC50 ([2]; TNFα 10 ng/mL) [nM] | IC50 [2] [nM]
CN1C(=O)[C@@H](NC(=O)c2nn(Cc3cccc(C#N)c3)cc2F)COc2cccnc21 [Example 144, (S)-1-(3-cyanobenzyl)-4-fluoro-N-(5-methyl-4-oxo-2,3,4,5-tetrahydropyrido[3,2-b][1,4]oxazepin-3-yl)-1H-pyrazole-3-carboxamide] | 0.1 to 1000 | 0.1 to 1000 | 
CN1C(=O)[C@@H](NC(=O)c2nnc(C3(c4ccccc4)CC3)o2)CCc2cccnc21 [Example 145A, (S)—N-(9-methyl-8-oxo-6,7,8,9-tetrahydro-5H-pyrido[2,3-b]azepin-7-yl)-5-(1-phenylcyclopropyl)-1,3,4-oxadiazole-2-carboxamide] | 0.1 to 1000 | 0.1 to 1000 | 
C[C@H]1Oc2cc(S(C)(=O)=O)cnc2N(C)C(=O)[C@H]1NC(=O)c1nnc(Cc2ccccc2)[nH]1 [Example 147, 5-benzyl-N-((2R,3S)-2,5-dimethyl-8-(methylsulfonyl)-4-oxo-2,3,4,5-tetrahydropyrido[3,2-b][1,4]oxazepin-3-yl)-4H-1,2,4-triazole-3-carboxamide] | 0.1 to 1000 | 0.1 to 1000 | 
CN1C(=O)[C@@H](NC(=O)c2cc(Oc3ccccc3F)cnn2)COc2cccnc21 [Example 149, (S)-5-(2-fluorophenoxy)-N-(5-methyl-4-oxo-2,3,4,5-tetrahydropyrido[3,2-b][1,4]oxazepin-3-yl)pyridazine-3-carboxamide] | 0.1 to 1000 | 0.1 to 1000 | 
C[C@H]1Oc2cc(C#N)cnc2N(C)C(=O)[C@H]1NC(=O)c1nnc(Cc2ccccc2)[nH]1 [Example 150, 5-benzyl-N-((2R,3S)-8-cyano-2,5-dimethyl-4-oxo-2,3,4,5-tetrahydropyrido[3,2-b][1,4]oxazepin-3-yl)-4H-1,2,4-triazole-3-carboxamide] | 0.1 to 1000 | 0.1 to 1000 | 
CN1C(=O)[C@@H](NC(=O)c2nc(C#N)c(Cc3ccccc3)s2)COc2cccnc21 [Example 151, (S)-5-benzyl-4-cyano-N-(5-methyl-4-oxo-2,3,4,5-tetrahydropyrido[3,2-b][1,4]oxazepin-3-yl)thiazole-2-carboxamide] | 0.1 to 1000 | 0.1 to 1000 | 
CN1C(=O)[C@@H](NC(=O)c2nn(Cc3cccc(C#N)c3)cc2F)CCc2cccnc21 [Example 152B, (S)-1-(3-cyanobenzyl)-4-fluoro-N-(9-methyl-8-oxo-6,7,8,9-tetrahydro-5H-pyrido[2,3-b]azepin-7-yl)-1H-pyrazole-3-carboxamide] | 0.1 to 1000 | 0.1 to 1000 | 
CN1C(=O)[C@@H](NC(=O)c2nn(Cc3ccc(F)cc3)cc2F)[C@H]2C[C@H]2c2cccnc21 [Example 156B, 4-fluoro-1-(4-fluorobenzyl)-N-((1aS,2S,8bR)-4-methyl-3-oxo-1,1a,2,3,4,8b-hexahydrocyclopropa[d]pyrido[2,3-b]azepin-2-yl)-1H-pyrazole-3-carboxamide] | 0.1 to 1000 | 0.1 to 1000 | 
CN1C(=O)[C@@H](NC(=O)c2cc(C#N)n(Cc3ccccc3)n2)COc2cccnc21 [Example 158, (S)-1-benzyl-5-cyano-N-(5-methyl-4-oxo-2,3,4,5-tetrahydropyrido[3,2-b][1,4]oxazepin-3-yl)-1H-pyrazole-3-carboxamide] | 0.1 to 1000 |  | 0.1 to 1000
CN1C(=O)[C@@H](NC(=O)c2nnc(Cc3cc(F)cc(C#N)c3)[nH]2)COc2cccnc21 [Example 162, (S)-5-(3-cyano-5-fluorobenzyl)-N-(5-methyl-4-oxo-2,3,4,5-tetrahydropyrido[3,2-b][1,4]oxazepin-3-yl)-4H-1,2,4-triazole-3-carboxamide] | 0.1 to 1000 | 0.1 to 1000 | 
CN1C(=O)[C@@H](NC(=O)c2ncc(Cc3cccc(C#N)c3)s2)COc2ccccc21 [Example 164, (S)-5-(3-cyanobenzyl)-N-(5-methyl-4-oxo-2,3,4,5-tetrahydrobenzo[b][1,4]oxazepin-3-yl)thiazole-2-carboxamide] | 0.1 to 1000 | 0.1 to 1000 | 
CN1C(=O)[C@@H](NC(=O)c2cc(F)n(Cc3ccccc3)n2)COc2cccnc21 [Example 165, (S)-1-benzyl-5-fluoro-N-(5-methyl-4-oxo-2,3,4,5-tetrahydropyrido[3,2-b][1,4]oxazepin-3-yl)-1H-pyrazole-3-carboxamide] | 0.1 to 1000 |  | 0.1 to 1000
CN1C(=O)[C@@H](NC(=O)c2cc(F)n(Cc3ccc(F)cc3)n2)COc2cccnc21 [Example 166, (S)-5-fluoro-1-(4-fluorobenzyl)-N-(5-methyl-4-oxo-2,3,4,5-tetrahydropyrido[3,2-b][1,4]oxazepin-3-yl)-1H-pyrazole-3-carboxamide] | 0.1 to 1000 | 0.1 to 1000 | 
CN1C(=O)[C@@H](NC(=O)c2nn(Cc3cncc(C#N)c3)cc2F)COc2cccnc21 [Example 168, (S)-1-((5-cyanopyridin-3-yl)methyl)-4-fluoro-N-(5-methyl-4-oxo-2,3,4,5-tetrahydropyrido[3,2-b][1,4]oxazepin-3-yl)-1H-pyrazole-3-carboxamide] | 0.1 to 1000 | 0.1 to 1000 | 
[2H]C([2H])([2H])N1C(=O)[C@@H](NC(=O)c2nnc(Cc3ccccc3)o2)[C@@H](C)Oc2cccnc21 [Example 174, 5-benzyl-N-((2R,3S)-2-methyl-5-trideuteriomethyl-4-oxo-2,3,4,5-tetrahydropyrido[3,2-b][1,4]oxazepin-3-yl)-1,3,4-oxadiazole-2-carboxamide] | 0.1 to 1000 | 0.1 to 1000 | 

Continued, in another order:

IC50 [1] [nM] | Structure (SMILES) | IC50 ([2]; TNFα 10 ng/mL) [nM] | IC50 [2] [nM]
0.1 to 1000 | CN1C(=O)[C@@H](NC(=O)c2nnc(Cc3ccccc3)o2)[C@H]2C[C@H]2c2cccnc21 [Example 157B, 5-benzyl-N-((1aS,2S,8bR)-4-methyl-3-oxo-1,1a,2,3,4,8b-hexahydrocyclopropa[d]pyrido[2,3-b]azepin-2-yl)-1,3,4-oxadiazole-2-carboxamide] | 0.1 to 1000 | 
0.1 to 1000 | CN1C(=O)[C@@H](NC(=O)c2nnc(Cc3ccccc3)o2)C2(CC2)Oc2cccnc21 [Example 160A, (S)-5-benzyl-N-(5′-methyl-4′-oxo-4′,5′-dihydro-3′H-spiro[cyclopropane-1,2′-pyrido[3,2-b][1,4]oxazepin]-3′-yl)-1,3,4-oxadiazole-2-carboxamide] | 0.1 to 1000 | 
0.1 to 1000 | CN1C(=O)[C@@H](NC(=O)c2nn(Cc3ccccc3F)cc2F)CCc2nccnc21 [Example 178A, (S)-4-fluoro-1-(2-fluorobenzyl)-N-(5-methyl-6-oxo-6,7,8,9-tetrahydro-5H-pyrazino[2,3-b]azepin-7-yl)-1H-pyrazole-3-carboxamide] | 0.1 to 1000 | 
0.1 to 1000 | CN1C(=O)[C@@H](NC(=O)c2nn(Cc3ccccc3F)cc2F)[C@H]2C[C@H]2c2nccnc21 [Example 179A, 4-fluoro-1-(2-fluorobenzyl)-N-((7S,7aS,8aR)-5-methyl-6-oxo-5,6,7,7a,8,8a-hexahydrocyclopropa[d]pyrazino[2,3-b]azepin-7-yl)-1H-pyrazole-3-carboxamide] | 0.1 to 1000 | 
0.1 to 1000 | CN1C(=O)[C@@H](NC(=O)c2nnc(C3(c4ccccc4)CC3)o2)CCc2nccnc21 [Example 180A, (S)—N-(5-methyl-6-oxo-6,7,8,9-tetrahydro-5H-pyrazino[2,3-b]azepin-7-yl)-5-(1-phenylcyclopropyl)-1,3,4-oxadiazole-2-carboxamide] | 0.1 to 1000 | 
